Literature values, collected in PubChem BioAssay AID1259409 (Chemical Carcinogenesis Research Information System (CCRIS), 2018).

Test system: rodent chemically induced tumor inhibition, incidence and multiplicity
Assay: CCRIS tumor inhibitor studies
Settings: Carcinogen: 7,12-DIMETHYLBENZ[A]ANTHRACENE, 57-97-6, Route [Inhibitor]: ORAL, Promoter: NONE USED

O=[Se](O)O
tumour outcome (control, treated, inhibition, significance) (Dose [Inhibitor]: 1 PPM IN DIET DAILY STARTING 1 WK PRIOR TO CARCINOGEN TREATMENT AND CONTINUING FOR DURATION OF STUDY (STUDY DURATION: 9, Species: MOUSE, Strain/Sex: BD2F1/FEMALE, Target Tissue: Type of Lesion: MAMMARY GLAND: TUMOR, Dose [Carcinogen]: 1 MG IN 0.2 ML COTTONSEED OIL 1/WK FOR 6 WK STARTING AT 8 WK OF AGE): 18/32 (56%), 8/32 (25%), 55%, not calculated | tumour outcome (control, treated, inhibition, significance) (Dose [Inhibitor]: 1.5 PPM IN 5% CORN OIL DIET DAILY STARTING 29 D BEFORE CARCINOGEN TREATMENT AND CONTINUING FOR DURATION OF STUDY (STUDY, Species: RAT, Strain/Sex: SPRAGUE-DAWLEY/FEMALE, Target Tissue: Type of Lesion: MAMMARY GLAND: ADENOCARCINOMA, Dose [Carcinogen]: 5 MG IN CORN OIL ONCE AT 50 D OF AGE): 12/30 (40%), 9/31 (29%), 28%, not significant | tumour outcome (control, treated, inhibition, significance) (Dose [Inhibitor]: 1.5 PPM IN 25% CORN OIL DIET DAILY STARTING 29 D BEFORE CARCINOGEN TREATMENT AND CONTINUING FOR DURATION OF STUDY (STUDY, Species: RAT, Strain/Sex: SPRAGUE-DAWLEY/FEMALE, Target Tissue: Type of Lesion: MAMMARY GLAND: ADENOCARCINOMA, Dose [Carcinogen]: 5 MG IN CORN OIL ONCE AT 50 D OF AGE): 21/30 (70%), 16/29 (55%), 21%, not significant | tumour outcome (control, treated, inhibition, significance) (Dose [Inhibitor]: 2 PPM IN DIET DAILY STARTING 1 WK PRIOR TO CARCINOGEN TREATMENT AND CONTINUING FOR DURATION OF STUDY (STUDY DURATION: 9, Species: MOUSE, Strain/Sex: BALB/FEMALE, Target Tissue: Type of Lesion: MAMMARY GLAND: TUMOR, Dose [Carcinogen]: 1 MG IN 0.2 ML COTTONSEED OIL 1/WK FOR 6 WK STARTING AT 8 WK OF AGE): 11/28 (39%), 2/28 (7%), 82%, not calculated | tumour outcome (control, treated, inhibition, significance) (Dose [Inhibitor]: 2 PPM IN DIET DAILY STARTING 1 WK PRIOR TO CARCINOGEN TREATMENT AND CONTINUING FOR DURATION OF STUDY (STUDY DURATION: 9, Species: MOUSE, Strain/Sex: BD2F1/FEMALE, Target Tissue: Type of Lesion: MAMMARY GLAND: TUMOR, Dose [Carcinogen]: 1 MG IN 0.2 ML COTTONSEED OIL 1/WK FOR 6 WK STARTING AT 8 WK OF AGE): 18/32 (56%), 5/32 (16%), 71%, not calculated | tumour outcome (control, treated, inhibition, significance) (Dose [Inhibitor]: 2.5 MG/KG DIET DAILY STARTING 2 WK BEFORE CARCINOGEN TREATMENT AND CONTINUING FOR DURATION OF STUDY (STUDY DURATION: 26, Species: RAT, Strain/Sex: SPRAGUE-DAWLEY/FEMALE, Target Tissue: Type of Lesion: MAMMARY GLAND: ADENOCARCINOMA, Dose [Carcinogen]: 10 MG ONCE AT 50 D OF AGE): 23/25 (92%), 18/25(72%), 22%, not significant | tumour outcome (control, treated, inhibition, significance) (Dose [Inhibitor]: 2.5 MG/KG DIET DAILY STARTING 2 WK BEFORE CARCINOGEN TREATMENT AND CONTINUING FOR DURATION OF STUDY (STUDY DURATION: 27, Species: RAT, Strain/Sex: SPRAGUE-DAWLEY/FEMALE, Target Tissue: Type of Lesion: MAMMARY GLAND: ADENOCARCINOMA, Dose [Carcinogen]: 10 MG ONCE AT 50 D OF AGE): 28/30 (93%), 23/30(77%), 17%, not significant | tumour outcome (control, treated, inhibition, significance) (Dose [Inhibitor]: 2.5 PPM IN 5% CORN OIL DIET DAILY STARTING 29 D BEFORE CARCINOGEN TREATMENT AND CONTINUING FOR DURATION OF STUDY (STUDY, Species: RAT, Strain/Sex: SPRAGUE-DAWLEY/FEMALE, Target Tissue: Type of Lesion: MAMMARY GLAND: ADENOCARCINOMA, Dose [Carcinogen]: 5 MG IN CORN OIL ONCE AT 50 D OF AGE): 12/30 (40%), 7/29 (24%), 40%, not significant | tumour outcome (control, treated, inhibition, significance) (Dose [Inhibitor]: 2.5 PPM IN 5% CORN OIL DIET DAILY STARTING 29 D BEFORE CARCINOGEN TREATMENT AND CONTINUING FOR DURATION OF STUDY (STUDY, Species: RAT, Strain/Sex: SPRAGUE-DAWLEY/FEMALE, Target Tissue: Type of Lesion: MAMMARY GLAND: ADENOCARCINOMA, Dose [Carcinogen]: 10 MG IN CORN OIL ONCE AT 50 D OF AGE): 21/30 (70%), 13/29 (45%), 36%, p<0.05 | tumour outcome (control, treated, inhibition, significance) (Dose [Inhibitor]: 2.5 PPM IN 5% CORN OIL DIET DAILY STARTING AT WEANING AND CONTINUING FOR DURATION OF STUDY (STUDY DURATION: 25 WK), Species: RAT, Strain/Sex: SPRAGUE-DAWLEY/FEMALE, Target Tissue: Type of Lesion: MAMMARY GLAND: ADENOCARCINOMA, Dose [Carcinogen]: 5 MG ONCE AT AGE 50 D): 40%, 24%, 40%, not calculated | tumour outcome (control, treated, inhibition, significance) (Dose [Inhibitor]: 2.5 PPM IN 25% CORN OIL DIET DAILY STARTING 29 D BEFORE CARCINOGEN TREATMENT ANDCONTINUING FOR DURATION OF STUDY (STUDY, Species: RAT, Strain/Sex: SPRAGUE-DAWLEY/FEMALE, Target Tissue: Type of Lesion: MAMMARY GLAND: ADENOCARCINOMA, Dose [Carcinogen]: 5 MG IN CORN OIL ONCE AT 50 D OF AGE): 21/30 (70%), 10/30 (33%), 53%, p<0.01 | tumour outcome (control, treated, inhibition, significance) (Dose [Inhibitor]: 2.5 PPM IN 25% CORN OIL DIET DAILY STARTING AT WEANING AND CONTINUING FOR DURATION OF STUDY (STUDY DURATION: 25 WK), Species: RAT, Strain/Sex: SPRAGUE-DAWLEY/FEMALE, Target Tissue: Type of Lesion: MAMMARY GLAND: ADENOCARCINOMA, Dose [Carcinogen]: 5 MG ONCE AT AGE 50 D): 70%, 33%, 53%, not calculated | tumour outcome (control, treated, inhibition, significance) (Dose [Inhibitor]: 2.5 PPM IN HIGH-SATURATED FAT DIET CONTAINING 1% CORN OIL AND 24% HYDROGENATED COCONUT OIL DAILY STARTING AT WEANING AND, Species: RAT, Strain/Sex: SPRAGUE-DAWLEY/FEMALE, Target Tissue: Type of Lesion: MAMMARY GLAND: TUMOR, Dose [Carcinogen]: 5 MG ONCE AT AGE 50 D): 7/25 (28%), 5/25 (20%), 29%, not significant | tumour outcome (control, treated, inhibition, significance) (Dose [Inhibitor]: 2.5 PPM IN HIGH-SATURATED FAT DIET CONTAINING 1% CORN OIL AND 24% HYDROGENATED COCONUT OIL DAILY STARTING AT WEANING AND, Species: RAT, Strain/Sex: SPRAGUE-DAWLEY/FEMALE, Target Tissue: Type of Lesion: MAMMARY GLAND: TUMOR, Dose [Carcinogen]: 10 MG ONCE AT AGE 50 D): 16/25 (64%), 8/24 (33%), 48%, p<0.05 | tumour outcome (control, treated, inhibition, significance) (Dose [Inhibitor]: 4 MG/KG DIET DAILY FOR 28 WK STARTING 2 WK BEFORE START OF CARCINOGEN TREATMENT AND CONTINUING FOR DURATION OF STUDY (ST, Species: RAT, Strain/Sex: SPRAGUE-DAWLEY/FEMALE, Target Tissue: Type of Lesion: MAMMARY GLAND: TUMOR, Dose [Carcinogen]: 5 MG IN CORN OIL 1/WK FOR 3 WK): 90%, 53%, 41%, p<0.01
